Values quoted from earlier work in patent US11311853B2, “Process for the preparation of double crosslinked core-shell polymeric nanoparticles for multimodal imaging and theranostic applications” (FONDAZIONE ISTITUTO ITALIANO DI TECNOLOGIA, priority 2017, dated 2022).

Conditions: commercial Gd-DTPA

- relaxivity in MRI: 4 mM⁻¹ s⁻¹
Structure (SMILES): O=C([O-])CN(CCN(CC(=O)[O-])CC(=O)O)CCN(CC(=O)[O-])CC(=O)O.[Gd+3] [Gd-DTPA, Gd-diethylenetriaminepentaacetic acid]
